Data as given in patent US20130029981A1, “COMPOUNDS, COMPOSITIONS, AND METHODS FOR CONTROLLING BIOFILMS” (Katholieke Universiteit Leuven, priority 2009, published 2013).

Assays:
[1] = system: Salmonella Typhimurium ATCC 14028; assay: Antibacterial activity: growth inhibition, OD600 after 24 h (GIC50); assay type: cell-based; conditions: 25° C.
Method: Evaluation of antibacterial-inhibitory activity of some substituted 2-amino-1H-imidazoles of the invention was carried out by diluting an overnight culture of Salmonella Typhimurium ATCC 14028 into a liquid medium. 200 μl of the diluted overnight culture was added to each well of a microtiter plate together with different concentrations of the test compound (1/2 dilution series of the compound). After an incubation of 24 hours the optical density at 600 nm of each well was determined with a microtiter plate reader.
(§1) Starting from a 40 mM stock solution of each compound in DMSO, two-fold serial dilutions in 100 μl liquid broth per well were prepared in dublicate in sterile transparant microtiter plates. The broth used was TSB 1/20 for measurements at 25° C. and CFA (in case of Salmonella Typhimurium) and LBNS (in case of Pseudomonas aeruginosa) for measurements at 37° C. Subsequently an overnight culture of the bacteria (S. Typhimurium ATCC14028 or P. aeruginosa PA14) was diluted 1/200 into the corresponding liquid broth and 100 μl was added to each well of the microtiterplate resulting in a total amout of 200 μl medium per well. After an incubation of 24 hours the optical density at 600 nm of each well was determined with a microtiter plate reader (VERSAmax, Molecular Devices).
(§2) Evaluation of antibacterial-inhibitory activity of some substituted imidazo[1,2-a]pyrimidinium bromide salts of the invention was carried out by diluting an overnight culture of Salmonella Typhimurium ATCC14028 or Pseudomonas aeruginosa PA141/200 into liquid medium. 200 μl of the diluted overnight culture was added to each well of a microtiterplate together with different concentrations of the test compound (1/2 dilution series of the compound). After an incubation of 24 hours the optical density at 600 nm of each well was determined with a microtiter plate reader.

S. Typhimurium ATCC14028 = assay: Bioscreen assay: influence on planktonic growth curve; assay type: cell-based, Salmonella Typhimurium; design: key: x: no influence on the planktonic growth at the IC50 for biofilm inhibition; ∘: planktonic growth is retarded at the IC50 for biofilm inhibition; conditions: planktonic growth at the IC50 for biofilm inhibition, 25° C.
From the text: Some of the tested compounds show a concentration range in which biofilm formation is inhibited but no effect on planktonic growth is observed. These compounds are particularly interesting for prevention of biofilm formation since the development of resistance against these compounds is less likely. Table 8 indicates whether the different compounds have an effect on the planktonic growth of the bacteria at the IC50 for biofilm inhibition. To construct Table 8, the effect of the tested compounds on the growth curve of the bacteria was determined at a concentration equal to the IC50 for biofilm inhibition, by using the Bioscreen system available from Oy Growth Curves Ab Ltd). The Bioscreen device from Oy Growth Curves Ab Ltd was used for measuring the influence of the chemical compounds on the planktonic growth of Salmonella Typhimurium and Pseudomonas aeruginosa. The Bioscreen is a computer controlled incubator/reader/shaker that uses 10×10 well microtiter plates and measures light absorbance of each well at a specified wave length in function of time. An overnight culture of S. […] The broth used was TSB 1/20 for the experiments at 16° C. and 25° C. For experiments at 37° C. CFA medium was used for S. […] As a control 3 μl of the appropriate solvent (DMSO or EtOH) was also added to the plate in 3- or 4-fold. The microtiter plate was incubated in the Bioscreen device at 16° C., 25° C. or 37° C. for at least 36 hours, with continious medium shaking. The absorbance of each well was measured at 600 nm each 15 minutes. Excel was used to generate the growth curves for treated the treated wells and the untreated control wells. Some of the compounds show a concentration range in which biofilm formation is inhibited but no effect on the planktonic growth is observed. Table 14 indicates if the different compounds have an effect on the planktonic growth of the bacteria at the IC50 for biofilm inhibition. To construct this table the effect of the compounds on the growth curve of the bacteria was determined at a concentration equal to the IC50 for biofilm inhibtion, by using the Bioscreen system from Oy Growth Curves Ab Ltd.

[2] = system: Pseudomonas aeruginosa PA14; assay: Antibacterial activity: growth inhibition, OD600 after 24 h (GIC50); assay type: cell-based; conditions: 25° C.
Method: as §1
as §2, with “reader. […] The GIC50 values of representative compounds for antibacterial activity are shown in the following Tables 9 and 10 (wherein Ph stands for phenyl, Me for methyl): […]” for “reader.”

Structure (SMILES) | IC50 [1] [µM] | Influence on growth (S. Typhimurium ATCC14028) | IC50 [2] [µM] | IC50 ([1]; listed as R1=Benzyl, R3=4-I—Ph, R4=H) [µM] | IC50 ([1]; listed as R1=benzyl, R3=4-I—ph, R4=H) [µM] | IC50 ([1]; Salmonella enterica) [µM] | IC50 ([2]; Pseudomonas aeruginosa, PA14) [µM]
CCCCCCN1c2nccc[n+]2CC1(O)c1ccc([N+](=O)[O-])cc1.[Br-] (centres unmarked) [Compound 34] | 100 to 200 | x |  |  |  |  | 
OC1(c2ccc(Cl)cc2)C[n+]2cccnc2N1C1CCCCC1.[Br-] (centres unmarked) [Compound 64] | 50 to 100 | x | 61.3 |  |  |  | 
OC1(c2ccc(I)cc2)C[n+]2cccnc2N1Cc1ccccc1.[Br-] (centres unmarked) [Compound 73] |  | x | 51.7 | 50 | 50 to 100 |  | 
O=[N+]([O-])c1ccc(C2(O)C[n+]3cccnc3N2C2CCCCCCCCCCC2)cc1.[Br-] (centres unmarked) [Compound 69] | < 6 |  | 8.89 |  |  |  | 
OC1(c2ccc(-c3ccccc3)cc2)C[n+]2cccnc2N1C1CCCC1.[Br-] (centres unmarked) [R1=Cyclopentyl, R3=4-biphenylyl, R4=H, 1-cyclopentyl-2-hydroxy-2-(4-biphenylyl)-2,3-dihydro-1H-imidazo[1,2-a]pyrimidin-4-ium bromide] |  | x |  |  |  | 25 to 50 | 27.1
